Test results as given in US6403606B1, “Thienopyridine derivatives and their use” (Takeda Chemical Industries Ltd., priority 1996, dated 2002).

| Compound | melting point [°C] |
| --- | --- |
| COc1ccc(-c2c(Cl)c(CNC(=O)c3cccnc3)nc3sc4c(c23)CCN(Cc2ccccc2)C4)cc1OC [Example 22B, 7-benzyl-3-chloro-4-(3,4-dimethoxyphenyl)-2-(nicotinoylaminomethyl)-5,6,7,8-tetrahydrothieno[2,3-b:5,4-c′]dipyridine] | 124 to 125 |
| COc1cc(-c2c(Cl)c(CNC(C)(C)C)nc3sc4c(c23)CCN(C(=O)c2ccccc2)C4)ccc1OC(C)C [Example 9B, 7-benzoyl-2-(tert-butylaminomethyl)-3-chloro-4-(4-isopropoxy-3-methoxyphenyl)-5,6,7,8-tetrahydrothieno[2,3-b:5,4-c′]dipyridine] | 165 to 166 |
| CCN(CC)Cc1nc2sc3c(c2c(-c2ccc(OC)c(OC)c2)c1Cl)CCN(Cc1ccccc1)C3 [Example 2B, 7-benzyl-3-chloro-2-(N,N-diethylaminomethyl)-4-(3,4-dimethoxyphenyl)-5,6,7,8-tetrahydrothieno[2,3-b:5,4-c′]dipyridine] | 150 to 151 |
| CCOC(=O)c1c(CCc2nccn2C)nc2sc3c(c2c1-c1ccc(OC)c(OC)c1)CCN(C(=O)c1ccccc1)C3 [Example 23A, ethyl 7-benzoyl-4-(3,4-dimethoxyphenyl)-5,6,7,8-tetrahydro-2-[2-(1-methylimidazol-2-yl)ethyl]thieno[2,3-b:5,4-c′]dipyridine-3-carboxylate] | 170 to 217 |
| COc1ccc(-c2c(Cl)c(CNC3CC3)nc3sc4c(c23)CCN(Cc2ccccc2)C4)cc1OC [Example 5B, 7-benzyl-3-chloro-2-(cyclopropylaminomethyl)-4-(3,4-dimethoxyphenyl)-5,6,7,8-tetrahydrothieno[2,3-b:5,4-c′]dipyridine] | 131 to 132 |
| COc1ccc(-c2c(Cl)c(CN3CCN(C(C)=O)CC3)nc3sc4c(c23)CCN(Cc2ccccc2)C4)cc1OC [Example 14B, 2-(4-acetylpiperazin-1-ylmethyl)-7-benzyl-3-chloro-4-(3,4-dimethoxyphenyl)-5,6,7,8-tetrahydrothieno[2,3-b:5,4-c′]dipyridine] | 183 to 184 |
| COc1ccc(-c2c(Cl)c(COc3ccccn3)nc3sc4c(c23)CCN(Cc2ccccc2)C4)cc1OC [Example 6B, 7-benzyl-3-chloro-4-(3,4-dimethoxyphenyl)-2-(2-pyridyloxymethyl)-5,6,7,8-tetrahydrothieno[2,3-b:5,4-c′]dipyridine] | 165 to 167 |

More lines, now with the values ahead:

| melting point [°C] | Compound |
| --- | --- |
| 156 to 157 | CCOC(=O)c1c(CN(CC)CC)nc2sc3ncccc3c2c1-c1ccc(OC)c(OC)c1 [Example 64A, ethyl 2-diethylaminomethyl-4-(3,4-dimethoxyphenyl)thieno[2,3-b:5,4-b′]dipyridine-3-carboxylate] |
| 228 to 230 | COc1ccc(-c2c(Cl)c(CN3CCCC3=O)nc3sc4cnccc4c23)cc1OC [Example 36B, 3-chloro-4-(3,4-dimethoxyphenyl)-2-(2-oxopyrrolidin-1-ylmethyl)thieno[2,3-b:5,4-c′]dipyridine] |
| 157 to 158 | COc1ccc(-c2c(Cl)c(COC3=NN(c4ccccc4)CC3)nc3sc4c(c23)CCN(Cc2ccccc2)C4)cc1OC [Example 32B, 7-benzyl-3-chloro-4-(3,4-dimethoxyphenyl)-2-(1-phenyl-2-pyrazolin-3-yloxymethyl)-5,6,7,8-tetrahydrothieno[2,3-b:5,4-c′]dipyridine] |
| 118 to 119 | CCOC(=O)c1c(CCCCn2cncn2)nc2sc3cnccc3c2c1-c1ccc(OC)c(OC)c1 [Example 30A, ethyl 4-(3,4-dimethoxyphenyl)-2-[4-(1,2,4-triazol-1-yl)butyl]thieno[2,3-b:5,4-c′]dipyridine-3-carboxylate] |
| 129 to 130 | CCOC(=O)c1c(CN(C)O)nc2sc3c(c2c1-c1ccc(OC)c(OC)c1)CCN(C(=O)c1ccccc1)C3 [Example 25A, ethyl 7-benzoyl-4-(3,4-dimethoxyphenyl)-2-(N-hydroxy-N-methylaminomethyl)-5,6,7,8-tetrahydrothieno[2,3-b:5,4-c′]dipyridine-3-carboxylate] |
